Data on one molecule can be found in US8937188B2, “Process for the preparation of lasofoxifene tartrate” (Glenmark Generics Ltd., priority 2009, dated 2015).

By melting point is commonly meant the temperature of the solid-liquid transition.

Consider `COc1ccc2c(c1)CCC=C2c1ccc(OCCN2CCCC2)cc1` [Example 1, 1-{2-[4-(6-Methoxy-3,4-dihydronaphthalene-1-yl)phenoxy]ethyl}pyrrolidine], for which the melting point lay within 71 to 75 °C.
